Reference: ChEMBL document CHEMBL1151789, “Molecular modeling studies toward the structural optimization of new cyclopeptide-based HDAC inhibitors modeled on the natural product FR235222” (Bioorg Med Chem, 2008)

Test: Inhibition of HDLP

Ki [nM] | IC50 [nM] | SMILES
7.77 |  | C[C@@H](O)C(=O)CCCCC[C@@H]1NC(=O)[C@@H]2CCCN2C(=O)[C@H](Cc2ccccc2)NC(=O)[C@H](Cc2c[nH]c3ccccc23)NC1=O
60.4 | 90 | CC[C@]1(C)NC(=O)[C@H](CCCCCC(=O)[C@@H](C)O)NC(=O)[C@H]2CC(C)(C)CN2C(=O)[C@H](Cc2ccccc2)NC1=O
82.1 |  | C[C@@H](O)C(=O)CCCCC[C@@H]1NC(=O)[C@@H]2CCCN2C(=O)[C@H](Cc2ccccc2)NC(=O)[C@H](Cc2ccccc2)NC1=O
20 |  | C[C@H](O)C(=O)CCCCC[C@@H]1NC(=O)[C@@H]2CCCN2C(=O)[C@H](Cc2ccccc2)NC(=O)[C@H](Cc2cnc[nH]2)NC1=O
16.4 | 30 | C[C@@H](O)C(=O)CCCCC[C@@H]1NC(=O)[C@H]2CCCN2C(=O)[C@H](Cc2ccccc2)NC(=O)C(C)(C)NC1=O
53.6 |  | CC[C@@H]1NC(=O)[C@H](CCCCCC(=O)[C@H](C)O)NC(=O)[C@@H]2CCCN2C(=O)[C@H](Cc2ccccc2)NC1=O
6.79 |  | C[C@H](O)C(=O)CCCCC[C@@H]1NC(=O)[C@@H]2CCCN2C(=O)[C@H](Cc2ccccc2)NC(=O)C2(CCCCC2)NC1=O
34.2 | 350000 | C[C@H](O)C(=O)CCCCC[C@@H]1NC(=O)[C@H]2CCCN2C(=O)[C@H](Cc2ccccc2)NC(=O)[C@H](Cc2cnc[nH]2)NC1=O
25.4 | 670 | C[C@H](O)C(=O)CCCCC[C@@H]1NC(=O)[C@H]2CCCN2C(=O)[C@H](Cc2ccccc2)NC(=O)C2(CCCCC2)NC1=O
10.6 |  | C[C@@H](O)C(=O)CCCCC[C@@H]1NC(=O)[C@@H]2CCCN2C(=O)[C@H](Cc2ccccc2)NC(=O)C(C)(C)NC1=O
52.8 |  | C[C@H](O)C(=O)CCCCC[C@@H]1NC(=O)[C@@H]2CCCN2C(=O)[C@H](Cc2ccccc2)NC(=O)C(C)(C)NC1=O
87.1 |  | C[C@H](O)C(=O)CCCCC[C@@H]1NC(=O)[C@H]2CCCN2C(=O)[C@H](Cc2ccccc2)NC(=O)[C@H](Cc2ccc(Cl)cc2)NC1=O
45.8 |  | CC[C@]1(C)NC(=O)[C@H](CCCCCC(=O)[C@@H](C)O)NC(=O)[C@@H]2CC(C)(C)CN2C(=O)[C@H](Cc2ccccc2)NC1=O
194 | 330 | C[C@H](O)C(=O)CCCCC[C@@H]1NC(=O)[C@H]2CCCN2C(=O)[C@H](Cc2ccccc2)NC(=O)C(C)(C)NC1=O
36.9 | 280 | C[C@@H](O)C(=O)CCCCC[C@@H]1NC(=O)[C@H]2CCCN2C(=O)[C@H](Cc2ccccc2)NC(=O)[C@H](Cc2ccccc2)NC1=O
110 | 1000 | CC[C@@H]1NC(=O)[C@H](CCCCCC(=O)[C@H](C)O)NC(=O)[C@H]2CCCN2C(=O)[C@H](Cc2ccccc2)NC1=O
23.4 |  | C[C@H](O)C(=O)CCCCC[C@@H]1NC(=O)[C@@H]2CCCN2C(=O)[C@H](Cc2ccccc2)NC(=O)[C@H](Cc2ccc(Cl)cc2)NC1=O
0.987 | 20 | C[C@@H](O)C(=O)CCCCC[C@@H]1NC(=O)[C@H]2CCCN2C(=O)[C@H](Cc2ccccc2)NC(=O)[C@H](Cc2c[nH]c3ccccc23)NC1=O

SMILES | Ki [nM] | IC50 [nM]
CC[C@]1(C)NC(=O)[C@H](CCCCCC(=O)[C@@H](C)O)NC(=O)[C@H]2CCCN2C(=O)[C@H](Cc2ccccc2)NC1=O | 18.6 | 50
CC[C@]1(C)NC(=O)[C@H](CCCCCC(=O)[C@@H](C)O)NC(=O)[C@@H]2CCCN2C(=O)[C@H](Cc2ccccc2)NC1=O | 12.7 | 
